# Experiments:
# Format in all cases: physicochemical
# [1] = Stability of polymorph E in competition with polymorph A (slurry in solvent, X-ray powder diffraction)
# Experimental: (§1) To verify the stability of polymorph E, trials were performed at the laboratory scale, by putting polymorph E in competition with compound (I) (polymorph A) and with the THF solvated form in mixtures of solvent.
# Polymorph E was first put in competition with compound (I) (polymorph A) (mixture 50/50, w/w) in ethanol/THF 80/20% v/v. This stability test was performed at ambient temperature under magnetic stirring for 24 hours, then the solid was filtered, dried, then analyzed by X-ray powder diffraction. […] Similar experiments were performed in ethanol 100% at various concentrations.
# Polymorph E stability also was tested as a suspension in 100% ethanol at room temperature, seeded with compound (I) (polymorph A).
# [2] = Stability of polymorph E in competition with the THF solvated form (slurry in THF/ethanol)
# Experimental: as §1
# Polymorph E was also put in competition with the solvated form of compound (I) obtained in from THF. A mixture of the THF solvated form and polymorph E (50/50, w/w) was left under stirring for 24 hours in 40V of THF/ethanol (50/50, v/v) at room temperature.
# [3] = Differential scanning calorimetry, relative stability of polymorphs A and E by the rules of Burger; conditions: from DSC melting point and enthalpy of fusion
# [4] = under the competition conditions described
smiles,measurement,setting,value
"COc1ccc(Cl)c(Nc2nc3ccccc3nc2NS(=O)(=O)c2cccc(NC(=O)C(C)(C)N)c2)c1 [Polymorph E, N-(3-{[(2Z)-3-[(2-chloro-5-methoxyphenyl)amino]quinoxalin-2(1H)-ylidene]sulfamoyl}phenyl)-2-methylalaninamide]",solid form found after competition,"[1]; competition with polymorph A, ethanol 100%, various concentrations",Polymorph E was always obtained
same,solid form found by X-ray powder diffraction after competition,"[1]; mixture 50/50 w/w with polymorph A, ethanol/THF 80/20% v/v, ambient temperature, magnetic stirring, 24 hours",Polymorph E was obtained
same,solid form found by X-ray powder diffraction after seeding,"[1]; suspension in 100% ethanol, room temperature, seeded with polymorph A, 24 hours",only polymorph E
same,relative stability versus polymorph A,[1]; [4],more stable than the polymorph A of compound (I)
same,solid form present at the end of competition,"[2]; mixture 50/50 w/w with THF solvated form, 40V THF/ethanol 50/50 v/v, room temperature, stirring 24 hours",only polymorph E was present
same,relative stability versus THF-solvated form,[2]; [4],more stable than the THF-solvated form
same,thermodynamic stability relationship between polymorphs A and E (monotropic),[3],the more stable one

# — US9388143B2, “Polymorph of N-(3-{[(2Z)-3-[(2-chloro-5-methoxyphenyl)amino]quinoxalin-2(1H)-ylidene]sulfamoyl}phenyl)-2-methylalaninamide” (Sanofi, priority 2012, dated 2016)
